Experimental data reported in paper PMC8563958 (Cell Research, 2021).
Where two headings read alike, the source gives them in different places.

Key:
MC4R [1] = conditions: cited from earlier work
From the text: (Fig. 1a). The binding mode of SHU9119 is generally like that of NDP-α-MSH. […] W6^3 is also clamped by H264^6.54 (TM6) and S188^EL2, and R5^2 connects TM3−TM4 and EL2 through hydrogen bonds with S188^EL2 and I185^4.61 (Fig. 2i; Supplementary information, Fig. S11 and Table S4).

MC4R [2] = test system: MC4R; design: method as in earlier work; conditions: ref 4 (AgRP); ref not given for MSH; cited from earlier work
MC1R = conditions: cited from earlier work
MC5R = MC5R with V126; cited from earlier work
MC4R L133 to methionine = conditions: cited from earlier work
[3] = molecular target: MC4R D122S, N-terminally HA-tagged (human) (UniProt P32245)
[4] = molecular target: wild-type MC4R, N-terminally HA-tagged (signalling construct) (human) (UniProt P32245)
wild-type MC4R (WT) = molecular target: T1, wild-type MC4R (WT) (Homo sapiens, UniProt P32245); format: cell-based; conditions: set as 100 %, 1 µM ligand, HEK293, 40 min 37 °C, 1 mM IBMX, 4-8 experiments in triplicates
T1 construct: expressed in transfected cells; host or cells: HEK293 (transient, vector pcDps)

MC4R H158A = molecular target: T2, MC4R H158A (Homo sapiens, UniProt P32245, H158A); format: cell-based
T2 construct: expressed in transfected cells; host or cells: HEK293 (transient, vector pcDps)

[5] = ref not given, cited from earlier work
From the text: In contrast to other M ...

agouti-related peptide (SSRRCVRLHESCLGQQVPCCDPCATCYCRFFNAFCYCRKLGTAMNPCSRT; UniProt O00253 83-132, looked up) [AgRP]
mode of action at MC4R (MC4R [1]; reducing high levels of basal signaling activity): inverse agonist | effect on appetite (MC4R [2]): orexigenic effects

SHU9119
mode of action at MC4R (MC4R [1]; antagonism): antagonizes the MC4R | mode of action at MC1R (MC1R; MC1R with M128, 37 (ref 36)): partial agonist | mode of action in MC1R–Gs complex (MC1R; cryo-EM structure of active MC1R–Gs complex): acting as an agonist | mode of action at MC5R (MC5R): partial agonist | mode of action at L133M mutant (MC4R L133 to methionine): reverses SHU9119 to an agonist

NDP-α-MSH (peptide)
EC50 of cAMP accumulation (Gs signaling), transfected HEK293 cells [3]: 9 nM

β-MSH
effect on appetite (MC4R [2]): appetite-reducing effects

setmelanotide (peptide)
potency (EC50) of cAMP accumulation, transfected HEK293 cells [4]: 1.2 nM

CC(=O)N[C@@H](CCCNC(=N)N)C(=O)N[C@H]1CSSC[C@@H](C(N)=O)NC(=O)[C@H](Cc2c[nH]c3ccccc23)NC(=O)[C@H](CCCNC(=N)N)NC(=O)[C@@H](Cc2ccccc2)NC(=O)[C@H](Cc2c[nH]cn2)NC(=O)[C@@H](C)NC1=O [setmelanotide]
Emax cAMP (wild-type MC4R (WT)): 100 % of WT | maximum Gq/11 signaling (MC4R H158A): 50% | Gs signaling-related adverse effects ([5]; in contrast to other MC4R agonists): does not cause common Gs signaling-related adverse effects, such as tachycardia or hypertension | adverse effects ([5]; rare, moderate): skin hyperpigmentation

melanotan II
mode of action at MC4R (MC4R [1]): agonizes MC4R | mode of action at MC4R (MC4R [1]; listed as melatonan II): agonistic effects
